A word on the IC50: it is the concentration that inhibits the measured activity by half.

The assay addresses T1, Human Factor XIIa (hFXIIa) (Homo sapiens, UniProt P00748).
T1 construct: purchased Enzyme Research Laboratories
T1 sequence (P00748 373-615 limits assumed): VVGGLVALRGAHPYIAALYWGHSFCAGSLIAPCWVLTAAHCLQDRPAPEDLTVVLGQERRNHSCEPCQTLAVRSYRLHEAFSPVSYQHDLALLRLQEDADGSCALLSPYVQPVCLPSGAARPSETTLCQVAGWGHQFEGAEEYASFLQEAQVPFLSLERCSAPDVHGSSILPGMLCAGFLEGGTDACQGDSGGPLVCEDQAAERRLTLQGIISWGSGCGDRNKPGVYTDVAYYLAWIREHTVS
T1 sequence (P00748 20-372 partner limits assumed): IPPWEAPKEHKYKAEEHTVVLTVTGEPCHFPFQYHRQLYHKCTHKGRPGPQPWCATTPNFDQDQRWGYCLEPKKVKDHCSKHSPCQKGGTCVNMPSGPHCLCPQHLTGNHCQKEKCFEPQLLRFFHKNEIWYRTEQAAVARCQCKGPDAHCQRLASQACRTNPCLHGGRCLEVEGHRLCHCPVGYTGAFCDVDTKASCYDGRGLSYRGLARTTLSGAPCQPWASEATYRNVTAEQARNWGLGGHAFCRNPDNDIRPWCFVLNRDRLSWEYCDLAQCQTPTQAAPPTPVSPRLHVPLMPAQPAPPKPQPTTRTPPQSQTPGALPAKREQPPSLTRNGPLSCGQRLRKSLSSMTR
Kind of assay: Determination of Human Factor XIIa (hFXIIa) inhibition, fluorogenic substrate IC50 assay. The assay is classed as biochemical. The note with it: fluorogenic substrate H-DPro-Phe-Arg-AFC at Km, 25° C., read-out: Human FXIIa IC50. How it is done:
Determination of Human Factor XIIa (hFXIIa) inhibition
The Km for the cleavage of the substrate by hFXIIa was determined by standard transformation of the Michaelis-Menten equation, with subsequent inhibition assays performed at substrate Km concentration.
`CN1CCc2ccc(N3CCc4c(C(=O)NCC5CC5)nn(-c5cncc(Cl)c5)c4C3=O)cc2C1=O` [Example 2021, 1-(5-chloropyridin-3-yl)-N-(cyclopropylmethyl)-6-(2-methyl-1-oxo-1,2,3,4-tetrahydroisoquinolin-7-yl)-7-oxo-4,5,6,7-tetrahydro-1H-pyrazolo[3,4-c]pyridine-3-carboxamide]: the IC50 was 3000 to 10000 nM.

For `O=C(NCC1CC1)c1nn(-c2cccc(Cl)c2)c2c1CCN(c1ccc3c(c1)CN(CC1CCOC1)CC3)C2=O` (stereo not drawn) [Example 1116, 1-(3-chlorophenyl)-N-(cyclopropylmethyl)-7-oxo-6-(2-((tetrahydrofuran-3-yl)methyl)-1,2,3,4-tetrahydroisoquinolin-7-yl)-4,5,6,7-tetrahydro-1H-pyrazolo[3,4-c]pyridine-3-carboxamide], the IC50 lay within 300 to 1000 nM.

As for `CN1CCc2ccc(N3CCc4c(C(=O)NC5CCNC(=O)C5)nn(-c5cccc(Cl)c5)c4C3=O)cc2C1` (stereo not drawn) [Example 1057, 1-(3-chlorophenyl)-6-(2-methyl-1,2,3,4-tetrahydroisoquinolin-7-yl)-7-oxo-N-(2-oxopiperidin-4-yl)-4,5,6,7-tetrahydro-1H-pyrazolo[3,4-c]pyridine-3-carboxamide], the IC50 was 300 to 1000 nM.

Turning to `CN(C)C(=O)c1ccnc(N2CCc3c(C(=O)NCC4CC4)nn(-c4cccc(Cl)c4)c3C2=O)c1` [Example 1273, 1-(3-chlorophenyl)-N-(cyclopropylmethyl)-6-(4-(dimethylcarbamoyl)pyridin-2-yl)-7-oxo-4,5,6,7-tetrahydro-1H-pyrazolo[3,4-c]pyridine-3-carboxamide], the IC50 was in the range of 3000 to 10000 nM.

As to `O=C(NCC1CC1)c1nn(-c2cccc(Cl)c2)c2c1CCN(c1ccc3c(c1)CN(Cc1ccn[nH]1)CC3)C2=O` [Example 1104, 6-(2-((1H-pyrazol-5-yl)methyl)-1,2,3,4-tetrahydroisoquinolin-7-yl)-1-(3-chlorophenyl)-N-(cyclopropylmethyl)-7-oxo-4,5,6,7-tetrahydro-1H-pyrazolo[3,4-c]pyridine-3-carboxamide], the half-maximal inhibitory concentration (IC50) fell in the range of 300 to 1000 nM.

In the case of `CN1CCc2ccc(N3CCc4c(C(=O)NC[C@@H]5COCCO5)nn(-c5cccc(Cl)c5)c4C3=O)cc2C1=O` [Example 1249, (R)-N-((1,4-dioxan-2-yl)methyl)-1-(3-chlorophenyl)-6-(2-methyl-1-oxo-1,2,3,4-tetrahydroisoquinolin-7-yl)-7-oxo-4,5,6,7-tetrahydro-1H-pyrazolo[3,4-c]pyridine-3-carboxamide], the half-inhibitory concentration (IC50) lay in the range of 300 to 1000 nM.

Regarding `O=C(Cn1nc(-c2cccc(Cl)c2)c2c1CCN(c1ccc3c(c1)CN(CCO)CC3)C2=O)NC1CC1` [Example 4004, 2-(3-(3-chlorophenyl)-5-(2-(2-hydroxyethyl)-1,2,3,4-tetrahydroisoquinolin-7-yl)-4-oxo-4,5,6,7-tetrahydro-1H-pyrazolo[4,3-c]pyridin-1-yl)-N-cyclopropylacetamide], the IC50 lay in the range of 1000 to 3000 nM.

With `CCOC(=O)c1nn(-c2cccc(Cl)c2)c2c1CCN(c1ccc3c(c1)C(=O)N(C)CC3)C2=O` [Example 1284, ethyl 1-(3-chlorophenyl)-6-(2-methyl-1-oxo-1,2,3,4-tetrahydroisoquinolin-7-yl)-7-oxo-4,5,6,7-tetrahydro-1H-pyrazolo[3,4-c]pyridine-3-carboxylate], the IC50 was in the range of 300 to 1000 nM.

Turning to `CN1CCc2ccc(N3CCc4c(C(=O)NC5CCOC5)nn(-c5cccc(Cl)c5)c4C3=O)cc2C1` (stereo not drawn) [Example 1042, 1-(3-chlorophenyl)-6-(2-methyl-1,2,3,4-tetrahydroisoquinolin-7-yl)-7-oxo-N-(tetrahydrofuran-3-yl)-4,5,6,7-tetrahydro-1H-pyrazolo[3,4-c]pyridine-3-carboxamide], the IC50 was 300 to 1000 nM.

`C[C@@H](CO)N1CCc2ccc(N3CCc4c(C(=O)NCC5CC5)nn(-c5cccc(Cl)c5)c4C3=O)cc2C1` [Example 1113, (S)-1-(3-chlorophenyl)-N-(cyclopropylmethyl)-6-(2-(1-hydroxypropan-2-yl)-1,2,3,4-tetrahydroisoquinolin-7-yl)-7-oxo-4,5,6,7-tetrahydro-1H-pyrazolo[3,4-c]pyridine-3-carboxamide]: the IC50 was in the range of 300 to 1000 nM.

For `O=C(O)CN1CCc2ccc(N3CCc4c(C(=O)NCC5CC5)nn(-c5cccc(Cl)c5)c4C3=O)cc2C1` [Example 1095, 2-(7-(1-(3-chlorophenyl)-3-((cyclopropylmethyl)carbamoyl)-7-oxo-1,4,5,7-tetrahydro-6H-pyrazolo[3,4-c]pyridin-6-yl)-3,4-dihydroisoquinolin-2(1H)-yl)acetic acid], the IC50 lay in the range of 1000 to 3000 nM.

As to `Cc1cc(CNC(=O)c2nn(-c3cccc(Cl)c3)c3c2CCN(c2ccc4c(c2)N(C)C(=O)CCC4)C3=O)nn1C` [Example 1241, 1-(3-chlorophenyl)-N-((1,5-dimethyl-1H-pyrazol-3-yl)methyl)-6-(1-methyl-2-oxo-2,3,4,5-tetrahydro-1H-benzo[b]azepin-8-yl)-7-oxo-4,5,6,7-tetrahydro-1H-pyrazolo[3,4-c]pyridine-3-carboxamide], the IC50 was in the range of 1000 to 3000 nM.

`CCOC(=O)c1nn(-c2cccc(C)n2)c2c1CCN(c1ccc3c(c1)C(=O)N(C)CC3)C2=O` [Example 2023, ethyl 6-(2-methyl-1-oxo-1,2,3,4-tetrahydroisoquinolin-7-yl)-1-(6-methylpyridin-2-yl)-7-oxo-4,5,6,7-tetrahydro-1H-pyrazolo[3,4-c]pyridine-3-carboxylate]: the IC50 was in the range of 300 to 1000 nM.

On to `CN1CCc2ccc(N3CCc4c(C(=O)NCC56COC(CO)(C5)C6)nn(-c5cccc(Cl)c5)c4C3=O)cc2C1` [Example 1050, 1-(3-chlorophenyl)-N-((1-(hydroxymethyl)-2-oxabicyclo[2.1.1]hexan-4-yl)methyl)-6-(2-methyl-1,2,3,4-tetrahydroisoquinolin-7-yl)-7-oxo-4,5,6,7-tetrahydro-1H-pyrazolo[3,4-c]pyridine-3-carboxamide], for which the IC50 fell in the range of 300 to 1000 nM.

With `CCN1CCc2ccc(N3CCc4c(C(=O)N[C@@H]5CCOC5)nn(-c5cccc(Cl)c5)c4C3=O)cc2C1` [Example 1091, (R)-1-(3-chlorophenyl)-6-(2-ethyl-1,2,3,4-tetrahydroisoquinolin-7-yl)-7-oxo-N-(tetrahydrofuran-3-yl)-4,5,6,7-tetrahydro-1H-pyrazolo[3,4-c]pyridine-3-carboxamide], the IC50 lay within 100 to 300 nM.

As to `CCOC(=O)c1nn(-c2cccc(Cl)c2)c2c1CCN(c1cccc(CN(C)C(=O)CO)c1)C2=O` [Example 1322, ethyl 1-(3-chlorophenyl)-6-(3-((2-hydroxy-N-methylacetamido)methyl)phenyl)-7-oxo-4,5,6,7-tetrahydro-1H-pyrazolo[3,4-c]pyridine-3-carboxylate], the IC50 was 10000 to 40000 nM.

As to `CN1CCc2ccc(N3CCc4c(C(=O)NC[C@H]5COCCO5)nn(-c5cccc(Cl)c5)c4C3=O)cc2C1=O` [Example 1246, (S)-N-((1,4-dioxan-2-yl)methyl)-1-(3-chlorophenyl)-6-(2-methyl-1-oxo-1,2,3,4-tetrahydroisoquinolin-7-yl)-7-oxo-4,5,6,7-tetrahydro-1H-pyrazolo[3,4-c]pyridine-3-carboxamide], the IC50 is 300 to 1000 nM.

As to `CCOC(=O)c1nn(-c2cccc(Cl)c2)c2c1CCN(c1cccc(C(=O)N(C)C)c1)C2=O` [Example 1196, ethyl 1-(3-chlorophenyl)-6-(3-(dimethylcarbamoyl)phenyl)-7-oxo-4,5,6,7-tetrahydro-1H-pyrazolo[3,4-c]pyridine-3-carboxylate], the IC50 lay in the range of 3000 to 10000 nM.

The record behind these values is patent publication US20260132132A1, “3A,4,5,6-TETRAHYDRO-1 H-PYRAZOLO[3,4-C]PYRIDIN-7(7AH)-ONE DERIVATIVES AS FACTOR XIIA INHIBITORS” (KALVISTA PHARMACEUTICALS LIMITED, priority 2022, published 2026).
